How the values were obtained:
HT-1080 cells = assay: Metabolic tracer analysis of pyrimidine synthesis (amide-15N-glutamine); type: cell-based, human; conditions: Lip-1 10 μM
Description: Metabolomic analysis was performed as previously described (Liu, X., et al., Nat Cell Biol 22, 476-486 (2020)). Cells were seeded on 35 mm culture plates at a density sufficient to ensure approximately 70-80% confluence at the time of extraction. For metabolic tracer analysis of pyrimidine synthesis, HT-1080 cells were treated with RSL3 and/or Lip-1 for 2 hours and then were shifted to drug-free media containing amide-^15N-glutamine (this time point is defined as 0 hour). Metabolites were extracted at the indicated time points for subsequent analyses. Metabolites were extracted by rapidly aspirating the culture medium and then adding 0.6 mL of an 80% methanol: 20% water mixture at dry ice temperature. The plates were incubated on dry ice for 15 minutes before the cell material was scraped into eppendorf tubes pre-chilled on ice. The cell debris was pelleted by centrifugation at 13,000 RCF for 5 minutes at 4° C. and the supernatant was transferred to a fresh tube and stored on dry ice until analysis. […]
The complete platform consists of an Accela 1250 HPLC system, Accela Open Autosampler, MayLab Mistraswitch column oven and Exactive orbitrap mass spectrometer, controlled by the Xcalibur 3.0.63 software package. […] The data were analyzed using the MAVEN software suite57 with signal intensity determined as the Peak Area (Top). […]

GPX4^low NCI-H226 cells = assay: Cell viability / cell death (ferroptosis) in NCI-H226 cells; type: cell-based, human; conditions: BQR; pretreatment Lip-1 or ZVF 10 μM, 24 hours
Description: Viable cells were measured using Cell Counting Kit-8 (CCK-8, Dojindo) as previously described (Koppula, P., Zhang, Y., Shi, J., Li, W. & Gan, B, J Biol Chem 292, 14240-14249 (2017); Liu, X. & Gan, B, Cell Cycle 15, 3471-3481 (2016)). Briefly, cells were seeded onto 96-well plates at a density of 2×10^4 per well. The next day, cells were treated with GPX4 or DHODH inhibitors for 4 hours. Subsequently, cells exposed to 10 μl CCK-8 reagent (100 μl medium per well) for 1 hour at 37° C., 5% CO2 in an incubator. The absorbance at a wavelength of 450 nm was determined using a FLUOstar Omega microplate reader (BMG Labtech).
Cell death was measured by propidium iodide (Roche) staining using a flow cytometer, as previously described (Dai, F., et al., Proc Natl Acad Sci USA 114, 3192-3197 (2017); Zhang, Y., et al., Cancer Res 80, 2243-2256 (2020)). For propidium iodide-staining, cells were seeded at a density of 50% confluence into 12-well plates. The next day, cells were treated with different reagents. To measure cell death, the cells were collected (including floating dead cells), stained with 5 μg/ml propidium iodide and the percentage of the propidium iodide-positive dead cell population was analyzed using the flow cytometer BD Accuri C6 (BD Biosciences) and an FL2 detector. A minimum of 10,000 single cells were analyzed per well and all experiments were carried out at least in triplicate.

GPX4-knockdown tumors = assay: GPX4-knockdown HT-1080 xenograft model; type: in vivo, athymic nude mice; conditions: liproxstatin-1 10 mg/kg intraperitoneally daily
Description: Fresh tumor tissues were fixed in 10% neutral buffered formalin overnight, washed once with PBS, and stored in 70% ethanol at 4° C. The tissues were dehydrated and embedded in paraffin by the Research Histology Core Laboratory (MD Anderson Cancer Center) according to standard protocols. Embedded tissues were sectioned at a thickness of 5 μm for H&E or immunohistochemistry (IHC) analysis. IHC analysis was performed as previously described (Gan, B., et al., Cancer Cell 18, 472-484 (2010); Gan, B., et al., J Cell Biol 175, 121-133 (2006)). Briefly, the primary antibodies, including ki-67 (1:500, 9027s, Cell Signaling Technology), cleaved-caspase 3 (1:500, 9661s, Cell Signaling Technology), or 4-HNE (1:400, ab46545, Abcam) were incubated overnight at 4° C. Staining was performed using the Vectastain elite ABC kit and DAB peroxidase substrate kit (Vector laboratories). Images were randomly taken from the […] (five images per tumor) at ×200 magnification using an Olympus BX43 microscope. All the xenograft experiments were performed in accordance with a protocol approved by the Institutional Animal Care and Use Committee and Institutional Review Board at The University of Texas MD Anderson Cancer Center. The study is compliant with all relevant ethical regulations regarding animal research. Female 4- to 6-week-old athymic nude mice (Foxn1^nu/Foxn1^nu) were purchased from the Experimental Radiation Oncology Breeding Core Facility at MD Anderson Cancer Center and housed in the Animal Care Facility at the Department of Veterinary Medicine and Surgery at MD Anderson. Cancer cell lines were suspended and counted in cold phosphate-buffered saline (PBS), and 5×10^6 HT-1080 or 1×10^7 NCI-H226 cells were injected into mice subcutaneously. When the tumor reached 50-100 mm^3, the mice were assigned randomly into different treatment groups. Brequinar or sulfasalazine was dissolved in dimethyl sulfoxide (DMSO) and diluted in PBS. Brequinar was intraperitoneally injected into mice at a dose of 30 mg/kg every three days. Sulfasalazine was intraperitoneally injected daily at a dose of 100 mg/kg. Liproxstatin-1 diluted in PBS was intraperitoneally injected daily at a dose of 10 mg/kg. The daily injection of brequinar, sulfasalazine, or liproxstatin-1 was continued until the endpoint as indicated in the corresponding figures. The tumor volume was measured every 3 days until the endpoint and calculated according to the equation volume=length×width^2×½.

## Clc1cccc(CN=C2Nc3ccccc3NC23CCNCC3)c1 [liproxstatin-1]
HT-1080 cells
  rescue of RSL3-induced increase of 15N-UMP levels: completely rescued
GPX4^low NCI-H226 cells
  rescue of DHODH inhibition-induced cell death: largely rescued
GPX4-knockdown tumors
  restoration of tumor growth under brequinar treatment: largely restored the growth

— patent US20240148757A1, “USE OF DIHYDROOROTATE DEHYDROGENASE (DHODH) INHIBITORS TO TARGET FERROPTOSIS IN CANCER THERAPY” (BOARD OF REGENTS, THE UNIVERSITY OF TEXAS SYSTEM, priority 2021, published 2024)
